Experimental data from patent US11807625B2, “Capsid inhibitors for the prevention of HIV” (Gilead Sciences, Inc., priority 2019, dated 2023).
“And” between values parts separate entries of the source, which are not always exact repeats. Identical values can stand only once.

Tests used:
[1] = Plasma concentration vs. time profile of Compound Ib in rhesus after single subcutaneous dose (SHIV challenge study); format: in vivo, rhesus macaques
Procedure: Eight animals per group were treated with a single dose of placebo control, 150 mg/kg of a compound of Formula (Ib) (“Compound 1b”) or 300 mg/kg of a compound of Formula (Ib) (“Compound 1b”) on week 0 and allowed to wash out over time. All animals were challenged intrarectally with SHIV weekly beginning on week 1 until detectable viremia or up to a maximum of 15 challenges. SHIV challenge titer was increased over time from 10 TCID50 to 100 TCID50 through week 15 as depicted. Animal SHIV infection rate was assessed by weekly plasma viral load monitoring by qRT-PCR through study week 20.
Mean±s.d. values are shown.
PK analysis details: Rhesus plasma samples were stored frozen at −80° C. and analyzed using high resolution mass spectrometry (HRMS) with electrospray ionization in the positive mode. Quantification was performed using an accurate mass ([M+H]+) of 958.1853 for a compound of Formula (Ib) (“Compound Ib”) and 758.3270 for the internal standard, respectively.

rhesus plasma protein = experiment: Competitive equilibrium dialysis (EQDS) assay, rhesus plasma protein binding; format: in vitro ADME; settings: EC95 adjusted for rhesus plasma protein binding (competitive equilibrium dialysis)
Procedure: The mean 95% effective concentration (EC95) of 1.91±0.16 nM for a compound of Formula (Ib) (“Compound Ib”) was determined using a 7-day antiviral assay (p24 ELISA endpoint) in rhesus peripheral blood mononuclear cells (PBMCs) infected with SHIV-162P3. A competitive equilibrium dialysis assay was used to quantify rhesus plasma protein binding to Compound Ib, resulting in an inhibitory quotient (IQ) equal to Compound Ib plasma concentrations divided by a mean rhesus plasma protein-binding-adjusted EC95 (paEC95) value of 30.2±2.5 nM.
Equilibrium dialysis shift (EQDS) assay details: Rhesus plasma protein binding to a compound of Formula (Ib) (“Compound Ib”) was determined by competitive equilibrium dialysis. Rhesus plasma (10%) was spiked with Compound Ib (2 μM) and blank RPMI cell culture medium containing 2% fetal bovine serum (CCM) were placed into opposite sides of assembled dialysis cells, and incubations were performed in triplicate. After a 24-h equilibration period at 37° C., samples were corrected for the matrix effect, quenched, and quantified by liquid chromatography tandem mass spectrometry (LC-MS/MS) with electrospray ionization in positive mode and multiple-reaction monitoring (MRM). The fold change value in 100% rhesus plasma was then calculated using the plasma/CCM ratio after correcting for the sample dilution factor and the percent free fraction in the matrix.

In the case of CC(C)(C#Cc1ccc(-c2ccc(Cl)c3c(NS(=O)(=O)C4CC4)nn(CC(F)F)c23)c([C@H](Cc2cc(F)cc(F)c2)NC(=O)Cn2nc(C(F)F)c3c2C(F)(F)[C@@H]2C[C@H]32)n1)S(C)(=O)=O [Compound Ib, N—((S)-1-(3-(4-chloro-3-(cyclopropanesulfonamido)-1-(2,2-difluoroethyl)-1H-indazol-7-yl)-6-(3-methyl-3-(methylsulfonyl)but-1-yn-1-yl)pyridin-2-yl)-2-(3,5-difluorophenyl)ethyl)-2-((3b S,4aR)-3-(difluoromethyl)-5,5-difluoro-3b,4,4a,5-tetrahydro-1H-cyclopropa[3,4]cyclopenta[1,2-c]pyrazol-1-yl)acetamide], the “Plasma Compound Ib Concentrations” value ([1]; 150 mg/kg SC day 0, individual animals, study week 1, SHIV dose 10 x TCID50) is reported as 3112 nM and 2516 nM and 762 nM and 882 nM, the “Plasma Compound Ib Concentrations” value ([1]; 150 mg/kg SC day 0, individual animals, study week 2, SHIV dose 10 x TCID50) is reported as 2108 nM and 2027 nM and 1059 nM and 1219 nM and the “Plasma Compound Ib Concentrations” value ([1]; 150 mg/kg SC day 0, individual animals, study week 3, SHIV dose 10 x TCID50) is reported as 750 nM and 1371 nM and 334 nM and 209 nM. The “Plasma Compound Ib Concentrations” value ([1]; 150 mg/kg SC day 0, individual animals, study week 4, SHIV dose 10 x TCID50) was 538 nM and 448 nM and 225 nM and 165 nM, the “Plasma Compound Ib Concentrations” value ([1]; 150 mg/kg SC day 0, individual animals, study week 5, SHIV dose 10 x TCID50) was 333 nM and 449 nM and 141 nM and 113 nM and the “Plasma Compound Ib Concentrations” value ([1]; 150 mg/kg SC day 0, individual animals, study week 6, SHIV dose 10 x TCID50) was 164 nM and 313 nM and 82 nM and 78 nM. For the same compound, the “Plasma Compound Ib Concentrations” value ([1]; 150 mg/kg SC day 0, individual animals, study week 7, SHIV dose 10 x TCID50) was 139 nM and 250 nM and 69 nM and 46 nM, the “Plasma Compound Ib Concentrations” value ([1]; 150 mg/kg SC day 0, individual animals, study week 8, SHIV dose 10 x TCID50) was 118 nM and 160 nM and 80 nM and 56 nM and 82 nM and the “Plasma Compound Ib Concentrations” value ([1]; 150 mg/kg SC day 0, individual animals, study week 9, SHIV dose 33 x TCID50) was 54 nM and 140 nM and 58 nM and 14 nM. The “Plasma Compound Ib Concentrations” value ([1]; 300 mg/kg SC day 0, individual animals, study week 1, SHIV dose 10 x TCID50) was 5528 nM and 3174 nM and 2251 nM and 1572 nM and 7818 nM and 2215 nM and 1944 nM, the “Plasma Compound Ib Concentrations” value ([1]; 300 mg/kg SC day 0, individual animals, study week 2, SHIV dose 10 x TCID50) was 1944 nM and 2466 nM and 1332 nM and 2066 nM and 3983 nM and 1949 nM and 1830 nM and the “Plasma Compound Ib Concentrations” value ([1]; 300 mg/kg SC day 0, individual animals, study week 3, SHIV dose 10 x TCID50) was 942 nM and 1003 nM and 894 nM and 508 nM and 1654 nM and 632 nM and 742 nM. For the same compound, the “Plasma Compound Ib Concentrations” value ([1]; 300 mg/kg SC day 0, individual animals, study week 4, SHIV dose 10 x TCID50) was 863 nM and 664 nM and 530 nM and 359 nM and 725 nM and 416 nM and 362 nM, the “Plasma Compound Ib Concentrations” value ([1]; 300 mg/kg SC day 0, individual animals, study week 5, SHIV dose 10 x TCID50) was 402 nM and 487 nM and 395 nM and 266 nM and 523 nM and 268 nM and 377 nM and the “Plasma Compound Ib Concentrations” value ([1]; 300 mg/kg SC day 0, individual animals, study week 6, SHIV dose 10 x TCID50) was 370 nM and 282 nM and 382 nM and 161 nM and 242 nM and 273 nM and 350 nM. For the same compound, the “Plasma Compound Ib Concentrations” value ([1]; 300 mg/kg SC day 0, individual animals, study week 7, SHIV dose 10 x TCID50) was 180 nM (2×) and 261 nM and 339 nM and 132 nM and 158 nM and 307 nM, the “Plasma Compound Ib Concentrations” value ([1]; 300 mg/kg SC day 0, individual animals, study week 8, SHIV dose 10 x TCID50) was 209 nM and 240 nM and 319 nM and 140 nM and 378 nM and 155 nM and 226 nM and the “Plasma Compound Ib Concentrations” value ([1]; 300 mg/kg SC day 0, individual animals, study week 9, SHIV dose 33 x TCID50) was 127 nM and 131 nM and 83 nM and 88 nM and 177 nM and 104 nM and 122 nM. For the same compound, the concentration at 12 weeks ([1]; both sexes, rhesus monkey, plasma, subcutaneous, 300 mg/kg, 300 mg/kg SC day 0, individual animals, study week 12, SHIV dose 100 x TCID50, read-out: Plasma Compound Ib Concentrations) was 83 nM, the concentration at 15 weeks ([1]; both sexes, rhesus monkey, plasma, subcutaneous, 300 mg/kg, 300 mg/kg SC day 0, individual animals, study week 15, SHIV dose 100 x TCID50, read-out: Plasma Compound Ib Concentrations) was 45 nM and the “mean rhesus plasma protein-binding-adjusted EC95 (paEC95)” value (rhesus plasma protein) was 0.0302 ± 0.0025 µM.
